Measured values published in patent US7498321B2, “17β-carbothioate 17α-arylcarbonyloxyloxy androstane derivative as anti-inflammatory agents” (Glaxo Group Limited, priority 2000, dated 2009).
Where “and” joins values, the source holds several entries; their conditions need not be identical. Identical values can stand only once.

Key:
[1] = Pharmacokinetics after intra-tracheal dry powder dosing in the pig; assay type: in vivo; conditions: for time after dosing up to which quantifiable in plasma: anaesthetised pigs, intra-tracheal 1 mg, LLOQ 10 (Example 1) and 20 pg/mL (fluticasone propionate)
Method: Serial blood samples were taken for up to 8 h following dosing.

[2] = Pharmacokinetics after intravenous administration in the anaesthetised pig; assay type: in vivo
Excerpt: The clearance of these two glucocortocoids is similar is this experimental pig model.

[3] = Pharmacokinetics after intravenous (IV) and oral dosing in rats; assay type: in vivo, male Wistar Han rats; conditions: rat; for plasma clearance (in words): in vivo
rat hepatocytes = assay: In vitro metabolism in rat hepatocytes; assay type: in vitro ADME
human hepatocytes = assay: In vitro metabolism in human hepatocytes; assay type: in vitro ADME; conditions: for 17-β acid metabolite production: 37° C., 10 μM
[4] = biological target: T1, glucocorticoid receptor (GR) (Homo sapiens, UniProt P04150); assay: Functional in vitro assay of glucocorticoid agonist activity (NF-κB/ELAM-sPAP reporter in A549 cells, TNF stimulated); assay type: cell-based; conditions: in vitro functional glucocorticoid agonist assays; versus Example 1
T1 construct: A549 cells stably transfected with a reporter gene containing the NF-κB responsive elements from the ELAM gene promoter; endogenous in cells; host or cells: A549 human lung epithelial cells (stably transfected with reporter only)
T1 sequence (P04150 1-777): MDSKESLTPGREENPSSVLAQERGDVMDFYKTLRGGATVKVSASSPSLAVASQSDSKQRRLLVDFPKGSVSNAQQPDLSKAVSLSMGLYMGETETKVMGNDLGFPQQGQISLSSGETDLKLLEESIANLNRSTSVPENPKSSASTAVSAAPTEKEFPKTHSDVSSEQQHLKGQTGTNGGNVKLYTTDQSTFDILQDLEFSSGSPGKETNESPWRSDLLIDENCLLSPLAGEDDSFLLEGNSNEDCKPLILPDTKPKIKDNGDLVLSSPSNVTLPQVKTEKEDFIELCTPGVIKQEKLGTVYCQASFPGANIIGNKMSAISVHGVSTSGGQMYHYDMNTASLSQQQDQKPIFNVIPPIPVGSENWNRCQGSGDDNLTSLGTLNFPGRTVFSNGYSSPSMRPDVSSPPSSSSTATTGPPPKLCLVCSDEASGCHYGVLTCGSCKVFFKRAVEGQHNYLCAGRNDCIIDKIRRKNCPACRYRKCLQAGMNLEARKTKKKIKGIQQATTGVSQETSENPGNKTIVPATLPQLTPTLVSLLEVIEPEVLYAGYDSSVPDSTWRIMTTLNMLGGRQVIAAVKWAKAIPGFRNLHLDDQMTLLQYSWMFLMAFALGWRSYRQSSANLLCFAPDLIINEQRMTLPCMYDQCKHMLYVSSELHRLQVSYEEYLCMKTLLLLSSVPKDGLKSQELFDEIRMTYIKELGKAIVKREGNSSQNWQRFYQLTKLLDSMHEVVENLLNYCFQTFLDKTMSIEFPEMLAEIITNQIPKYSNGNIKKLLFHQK
Method: Pharmacological activity was assessed in a functional in vitro assay of glucocorticoid agonist activity which is generally predictive of anti-inflammatory or anti-allergic activity in vivo.
The functional assay was based on that described by K. P. Ray et al., Biochem J. (1997), 328, 707-715. A549 cells stably transfected with a reporter gene containing the NF-κB responsive elements from the ELAM gene promoter coupled to sPAP (secreted alkaline phosphatase) were treated with test compounds at appropriate doses for 1 hour at 37° C. The cells were then stimulated with tumour necrosis factor (TNF, 10 ng/ml) for 16 hours, at which time the amount of alkaline phosphatase produced is measured by a standard colourimetric assay. Dose response curves were constructed from which EC50 values were estimated.

SMILES: C[C@@H]1CC2C3C[C@H](F)C4=CC(=O)C=C[C@]4(C)[C@@]3(F)[C@@H](O)C[C@]2(C)[C@@]1(OC(=O)c1ccco1)C(=O)SCF (stereo partly drawn) [Example 1, 6α, 9α-Difluoro-17α-[(2-furanylcarbonyl)oxy]-11β-hydroxy-16α-methyl-3-oxo-androsta-1,4-diene-17β-carbothioic acid S-fluoromethyl ester]
- AUC (0-inf) ([1]; Pig 1, intra-tracheal 1 mg dry powder blend in lactose): 0.254 ng·h/mL
- AUC (0-inf) ([1]; Pig 2, intra-tracheal 1 mg dry powder blend in lactose): 0.221 ng·h/mL
- time after dosing up to which quantifiable in plasma [1]: up to 2 hours
- clearance compared with fluticasone propionate (in words) ([2]; IV 0.1 mg/kg): similar
- pharmacokinetic parameters compared with fluticasone propionate (in words) ([2]; IV mixture of the two compounds at 0.1 mg/kg): the same
- plasma clearance (in words) [3]: approaching hepatic blood flow
- oral bioavailability ([3]; oral 0.1 mg/kg vs IV 0.1 mg/kg, 0.1 mg/kg): < 1% and 0.9%
- manner of metabolism (in words) (rat hepatocytes): metabolised in an identical manner to fluticasone propionate
- manner of metabolism (in words) (human hepatocytes; human hepatocytes): metabolised in an identical manner to fluticasone propionate
- 17-β acid metabolite production (human hepatocytes; subject 1, 0.2 million cells/mL): 48.9 pmol/h
- 17-β acid metabolite production (human hepatocytes; subject 1, 0.7 million cells/mL): 73.3 pmol/h
- 17-β acid metabolite production (human hepatocytes; subject 2, 0.2 million cells/mL): 118 pmol/h
- 17-β acid metabolite production (human hepatocytes; subject 2, 0.7 million cells/mL): 903 pmol/h
- 17-β acid metabolite production (human hepatocytes; subject 3, 0.7 million cells/mL): 580 pmol/h

SMILES: CC1CC2C3CC(F)C4=CC(=O)C=CC4(C)C3(F)C(O)CC2(C)C1(OC(=O)c1ccsc1)C(=O)SCF (stereo not drawn) [Example 4, 6α,9α-Difluoro-11β-hydroxy-16α-methyl-3-oxo-17α-[(3-thienylcarbonyl)oxy]-androsta-1,4-diene-17β-carbothioic acid S-fluoromethyl ester]
- plasma clearance (in words) [3]: approaching hepatic blood flow

SMILES: Cc1ccoc1C(=O)OC1(C(=O)SCF)C(C)CC2C3CC(F)C4=CC(=O)C=CC4(C)C3(F)C(O)CC21C (stereo not drawn) [Example 19, 6α,9α-Difluoro-11β-hydroxy-16α-methyl-17α-[(3-methylfuran-2-carbonyl)oxy]-3-oxo-androsta-1,4-diene-17β-carbothioic acid S-fluoromethyl ester]
- plasma clearance (in words) [3]: approaching hepatic blood flow

SMILES: Cc1cc(C(=O)OC2(C(=O)SCF)C(C)CC3C4CC(F)C5=CC(=O)C=CC5(C)C4(F)C(O)CC32C)no1 (stereo not drawn) [Example 24, 6α,9α-Difluoro-11β-hydroxy-16α-methyl-17α-[(5-methylisoxazole-3-carbonyl)oxy]-3-oxo-androsta-1,4-diene-17β-carbothioic acid S-fluoromethyl ester]
- plasma clearance (in words) [3]: approaching hepatic blood flow

SMILES: Cc1cc(C(=O)OC2(C(=O)SCF)C(C)CC3C4CC(F)C5=CC(=O)C=CC5(C)C4(F)C(O)CC32C)on1 (stereo not drawn) [Example 25, 6α,9α-Difluoro-11β-hydroxy-16α-methyl-17α-[(3-methylisoxazole-5-carbonyl)oxy]-3-oxo-androsta-1,4-diene-17β-carbothioic acid S-fluoromethyl ester]
- plasma clearance (in words) [3]: approaching hepatic blood flow

SMILES: CC1CC2C3CC(F)C4=CC(=O)C=CC4(C)C3(F)C(O)CC2(C)C1(OC(=O)c1ccon1)C(=O)SCF (stereo not drawn) [Example 28, 6α,9α-Difluoro-11β-hydroxy-17α-[(isoxazole-3-carbonyl)oxy]-16α-methyl-3-oxo-androsta-1,4-diene-17β-carbothioic acid S-fluoromethyl ester]
- plasma clearance (in words) [3]: approaching hepatic blood flow

SMILES: CCC(=O)O[C@]1(C(=O)SCF)[C@H](C)C[C@H]2[C@@H]3C[C@H](F)C4=CC(=O)C=C[C@]4(C)[C@@]3(F)[C@@H](O)C[C@@]21C [Fluticasone propionate, 6α, 9α-Difluoro-17α-(1-oxopropoxy)-11β-hydroxy-16α-methyl-3-oxo-androsta-1,4-diene-17β-carbothioic acid S-fluoromethyl ester, reference compound]
- time after dosing up to which quantifiable in plasma [1]: up to 8 hours

SMILES: C[C@@H]1C[C@H]2[C@@H]3C[C@H](F)C4=CC(=O)C=C[C@]4(C)[C@@]3(F)[C@@H](O)C[C@]2(C)[C@@]1(OC(=O)c1ccco1)C(=O)O [Metabolite (X)]
- fold less active than the parent compound [4]: > 1000 fold
